The target of this assay is Metabotropic glutamate receptor 5 (Homo sapiens) (UniProt P41594). Description: PubChem AID 588737. As to conditions: HEK293A hmGluR5 calcium fluorescence, glutamate CRC fold shift, at 10 µM, stronger effect = higher value; for Emax: glutamate max response with compound.

Among the data in PubChem BioAssay AID588737 (Vanderbilt Specialized Chemistry Center, 2011) are fold shift and Emax values, retold here.

In general, Emax refers to the size of the effect at its maximum, as opposed to the concentration needed.

Metabotropic glutamate receptor 5 (Homo sapiens), sequence (P41594 whole entry, looked up): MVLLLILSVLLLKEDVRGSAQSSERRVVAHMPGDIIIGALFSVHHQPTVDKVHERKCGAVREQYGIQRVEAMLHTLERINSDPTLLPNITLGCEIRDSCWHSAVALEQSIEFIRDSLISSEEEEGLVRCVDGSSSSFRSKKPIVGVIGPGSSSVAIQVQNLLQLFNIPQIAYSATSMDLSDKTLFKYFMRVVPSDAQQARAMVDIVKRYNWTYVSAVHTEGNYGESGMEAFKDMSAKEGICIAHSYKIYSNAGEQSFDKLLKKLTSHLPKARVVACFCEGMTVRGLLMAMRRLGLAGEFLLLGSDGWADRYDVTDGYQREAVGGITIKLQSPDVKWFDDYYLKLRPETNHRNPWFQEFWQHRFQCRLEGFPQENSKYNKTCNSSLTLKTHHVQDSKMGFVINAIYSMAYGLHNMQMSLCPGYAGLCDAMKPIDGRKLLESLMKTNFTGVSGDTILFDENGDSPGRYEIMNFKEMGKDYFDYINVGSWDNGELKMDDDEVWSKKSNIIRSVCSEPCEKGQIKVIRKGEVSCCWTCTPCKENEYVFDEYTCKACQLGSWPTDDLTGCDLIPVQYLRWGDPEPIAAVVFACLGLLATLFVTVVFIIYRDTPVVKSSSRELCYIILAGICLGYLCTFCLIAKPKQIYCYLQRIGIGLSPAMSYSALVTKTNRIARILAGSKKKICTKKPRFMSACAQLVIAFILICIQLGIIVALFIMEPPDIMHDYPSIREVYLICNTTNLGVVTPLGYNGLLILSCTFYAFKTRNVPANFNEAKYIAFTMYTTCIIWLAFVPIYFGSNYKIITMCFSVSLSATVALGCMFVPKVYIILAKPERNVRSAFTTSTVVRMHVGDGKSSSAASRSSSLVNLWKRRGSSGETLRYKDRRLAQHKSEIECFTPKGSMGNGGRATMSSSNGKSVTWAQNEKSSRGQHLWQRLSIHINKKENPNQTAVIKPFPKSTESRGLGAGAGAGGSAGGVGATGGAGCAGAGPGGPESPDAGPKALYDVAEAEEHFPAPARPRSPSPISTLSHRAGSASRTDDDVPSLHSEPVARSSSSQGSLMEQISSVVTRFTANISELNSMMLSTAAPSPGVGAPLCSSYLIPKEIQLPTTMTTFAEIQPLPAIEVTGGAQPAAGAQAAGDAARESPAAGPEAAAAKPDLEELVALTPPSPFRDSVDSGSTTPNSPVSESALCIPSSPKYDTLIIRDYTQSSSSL

In the case of `C[C@@H](NC(=O)c1ccc(C#Cc2cccc(F)c2)cn1)C(C)(C)O`, the fold shift is 9.79 and the Emax worked out at 95%.
Taken in the same sequence, the figures for `CC1(NC(=O)c2ccc(C#Cc3cccc(F)c3)cn2)COC1` were 2.19 and 88%.
